{"source": "patent US20060058346A1", "about": "“Novel enantiomers of etrahydroisoquinoline derivatives and theirpharmaceutically acceptable salts, their preparations and pharmaceutical compositions” (priority 2002, published 2006)", "key": {"[1]": {"tested_on": "rat with DIC and MOF induced by endotoxin", "assay": "Endotoxin-induced DIC and multiple organ failure in rat", "type": "in vivo", "settings": "for platelet concentration compared with LPS only: FIG. 2", "description": "Rats (Crj:CD(SD); 250±20 g) were used to test sample. Before the compound was administered, the rat was not fed. The compound was orally administered one time per day for two days in an amount of 10 mg˜25 mg/10 ml/kg/day. Distilled water (control group and LPS group) or enantiomer was administered to the rat repeatedly. After one hour, rat was anaesthetized with intramuscular injection of 50 mg/kg of pentobarbital. […] Thereafter, 50 mg/kg of pentobarbital was injected at 2 hour to the rat by intramuscular injection. Therefore, the rat was anaesthetized for all the experiment and operation.\nThe blood (2 ml for FDP and 6 ml for other variables) was collected from abdominal artery using a plastic syringe, into glass tube containing soy bean trypsin inhibitor and Bothrops atrox venom to measure FDP and into plastic tube containing 2.2% sodium citrate (1/10, volume/volume). The aggregated blood was centrifuged at 1200×g for 5 minutes two times. Before measurement of FDP, the supernatant was stored at freezer for at least 12 hours. Citrated blood was centrifuged at 2000×g for 30 minutes. The supernatant was used for measurement of fibrinogen and PT or APTT time. The aggregated blood collected in glass tube was disposed at the room temperature for 30 min, centrifuged to give the serum for measurement of AST and BUN.\nPlatelet from total citrated blood was counted by using automatic platelet counter (PLT-4, Texas International Lab.) PT or APTT time was measured by Beckton Dickenson BBL Fibrosystem (Coctkeysville, USA). FDP analysis was accomplished by using Thrombo-wellcotest kit. The said analysis was accomplished by up and down dilution method semi-quantitatively. Measurement of AST and BUN was accomplished by using Autobiochemical analyzer (Hitach 747, Japan)."}, "[2]": {"assay": "Acute toxicity in rat (LD50)", "type": "in vivo", "settings": "Sprague-Dawley, in vivo", "description": "Sprague-Dawley rats (six weeks) were used as test sample. Each group was comprised of two rats. […] The said emulsion was administered to two rats one times using intravenous injection and intraperitoneal injection."}, "left auricle muscle": {"tested_on": "left auricle muscle", "assay": "Contractile force of left auricle muscle excised from rats", "parameters": "species or system rat", "settings": "for Contractile Force of Auricle Muscles: vehicle control:100%", "how_it_was_run": "(§1)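 Sprague-Dawley rat atria in Krebs solution (pH 7.4, 95% O2/5% CO2, 37°C) under 1 g tension. Left atrium electrically paced (10% above threshold, 1 Hz, 5 ms) for contractile force; spontaneously beating right atrium used for beat rate. Recorded over 60 min with 20-min solution changes.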"}, "Rat Thoracic Aortas": {"tested_on": "Rat Thoracic Aortas", "assay": "Relaxation of rat thoracic aortas contracted by phenylephrine", "settings": "for IC50: Rattus norvegicus, Endothelial cell, 0.1 μM phenylephrine contraction; for relaxation of contracted blood vessels: concentration-dependant manner", "how_it_was_run": "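Rat thoracic aortic rings, with or without endothelium, under 1 g tension, precontracted with 0.1 μM phenylephrine. Enantiomers added cumulatively at equilibrium; relaxation recorded on physiograph and related to added amount.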"}, "rat PRP": {"tested_on": "rat PRP", "assay": "Inhibition of platelet aggregation in rat PRP", "type": "cell-based", "settings": "for IC50: Platelet, rat PRP", "description": "Male rat (weighing 200±20 g) was anaesthetized with ether. The blood (nine volumes) was collected from heart using a plastic syringe containing 2.2% sodium citrate (one volume). The collected blood was centrifuged at 200×g for 10 minutes to give supernatant platelet-rich plasma (PRP). The residue was centrifuged again at 700×g for 30 minutes, giving platelet-poor plasma (PPP) for experiment. We used a platelet analyzer to count the number of platelet of the PRP. PRP was diluted with physiological saline solution to prepare solution containing platelets in an amount of 400-450×10^6/ml. The inhibitory effects of the compound represented by formulas 3 to 8 was evaluated by platelet aggregation analyzer, and the inhibitory effect of each compound is given as % below. That is, after PRP was incubated for 3 minutes at 37° C., the compounds or a carrier was added thereto, and after 1 min, platelet aggregation-inducing agent such as ADP, collagen, arachidonic acid (AA), U46619 or epinephrine was added thereto, followed by investigation of turbidity caused by aggregation of platelets. % Inhibition=A−B/A×100 [arithmetic formula 1] • (A: Platelet aggregation rate in group treated with an aggregation-inducing agent; • B: Platelet aggregation rate in group treated with both an aggregation-inducing agent and the enantiomers simultaneously)"}, "LPS-injected rat": {"tested_on": "LPS-injected rat", "assay": "Survival in LPS-injected rat", "type": "in vivo", "description": "Rats (25˜30 g, ICR), originated from NIH cancer institute (Bethesda, Md., USA) were purchased from Korea Test Animal Corp. (Unsung, Korea). 20 mg/kg of LPS was injected to abdominal cavity of the rat. Thereafter, survival was observed every 24 hours for seven days, to investigate effect of enantiomer on the survival in LPS-injected rat. The compound represented by formula 3 to 8 was administered 30 min before the LPS injection."}, "right auricle muscle": {"tested_on": "right auricle muscle", "assay": "Heart rates (beats) of right auricle muscle excised from rats", "parameters": "species or system rat", "settings": "for Heart Rates of Auricle Muscles: vehicle control:100%", "how_it_was_run": "as §1"}, "[3]": {"settings": "ip, single intraperitoneal injection, read-out: LD50, Intraperitioneal injection"}, "[4]": {"settings": "single intravenous injection, read-out: LD50, Intravenous injection"}, "[5]": {"settings": "group containing endothelial cells, read-out: IC50 (E+), concentration showing relaxation response of 50%"}, "[6]": {"settings": "group not containing endothelial cells, read-out: IC50 (E−), concentration showing relaxation response of 50%"}, "[7]": {"settings": "ADP 2 − 5 × 10^−6 M, read-out: IC50 platelet aggregation, ADP"}, "[8]": {"settings": "U46619 1.5 × 10^−6 M with threshold collagen, read-out: IC50 platelet aggregation, U46619"}, "[9]": {"settings": "arachidonic acid 1 − 4 × 10^−5 M with threshold collagen, read-out: IC50 platelet aggregation, AA"}, "[10]": {"settings": "collagen 2 − 5 × 10^−6 g/ml, read-out: IC50 platelet aggregation, collagen"}, "[11]": {"settings": "epinephrine 1 − 4 × 10^−6 M with threshold collagen, read-out: IC50 platelet aggregation, Epinephrine"}}, "note": "Like-named read-outs stand apart in the source and are kept apart here.", "data": [{"smiles": "Oc1cc2c(cc1O)[C@H](Cc1ccc3ccccc3c1)NCC2", "note": "[Formula 7, (S)-6,7-Dihydroxy-1-(β-naphthylmethyl)-1,2,3,4-tetrahydroisoquinoline]", "values": [{"measurement": "serum level of FDP compared with R-configuration", "setting": "[1]; 10 mg/kg, FIG. 4", "value": "lower"}, {"measurement": "platelet concentration compared with LPS only", "setting": "[1]", "value": "higher"}, {"measurement": "LD50", "setting": "[2]; [3]", "value": 376, "unit": "mg/kg"}, {"measurement": "LD50", "setting": "[2]; [4]", "value": 184, "unit": "mg/kg"}, {"measurement": "effect on contractile force of auricle muscles", "setting": "left auricle muscle", "value": "strongly increased"}, {"measurement": "Contractile Force of Auricle Muscles", "setting": "left auricle muscle; 1 × 10^−4 M", "value": 380, "unit": "%"}, {"measurement": "Contractile Force of Auricle Muscles", "setting": "left auricle muscle; 1 × 10^−5 M", "value": 350, "unit": "%"}, {"measurement": "Contractile Force of Auricle Muscles", "setting": "left auricle muscle; 1 × 10^−6 M", "value": 250, "unit": "%"}, {"measurement": "Contractile Force of Auricle Muscles", "setting": "left auricle muscle; 1 × 10^−7 M", "value": 120, "unit": "%"}, {"measurement": "Contractile Force of Auricle Muscles", "setting": "left auricle muscle; 3 × 10^−5 M", "value": 380, "unit": "%"}, {"measurement": "Contractile Force of Auricle Muscles", "setting": "left auricle muscle; 3 × 10^−6 M", "value": 315, "unit": "%"}, {"measurement": "Contractile Force of Auricle Muscles", "setting": "left auricle muscle; 3 × 10^−7 M", "value": 170, "unit": "%"}, {"measurement": "IC50", "setting": "Rat Thoracic Aortas; [5]", "value": 757, "unit": "nM"}, {"measurement": "IC50", "setting": "Rat Thoracic Aortas; [6]", "value": 3140, "unit": "nM"}, {"measurement": "relaxation of contracted blood vessels", "setting": "Rat Thoracic Aortas", "value": "induced relaxation"}, {"measurement": "IC50", "setting": "rat PRP; [7]", "value": 460, "unit": "µM"}, {"measurement": "IC50", "setting": "rat PRP; [8]", "value": 61, "unit": "µM"}, {"measurement": "IC50", "setting": "rat PRP; [9]", "value": 62, "unit": "µM"}, {"measurement": "IC50", "setting": "rat PRP; [10]", "value": 150, "unit": "µM"}, {"measurement": "IC50", "setting": "rat PRP; [11]", "value": 0.9, "unit": "µM"}, {"measurement": "inhibitory effect on epinephrine-induced platelet aggregation, times as strong as R-enantiomer", "setting": "rat PRP; epinephrine, S versus R", "value": "about seventeen times as strong"}, {"measurement": "inhibitory effect on epinephrine-induced platelet aggregation, times as strong as racemic mixture", "setting": "rat PRP; epinephrine, S versus racemic mixture", "value": "about five times as strong"}, {"measurement": "survival after six days", "setting": "LPS-injected rat; 15 mg/kg compound 30 min before LPS 20 mg/kg i.p.", "value": 73, "unit": "%"}, {"measurement": "decrease of survival at 30 mg/kg versus 15 mg/kg", "setting": "LPS-injected rat; LPS 20 mg/kg", "value": 7, "unit": "%"}, {"measurement": "effect on heart rates of auricle muscles", "setting": "right auricle muscle", "value": "strongly stimulated"}, {"measurement": "Heart Rates of Auricle Muscles", "setting": "right auricle muscle; 1 × 10^−4 M", "value": 180, "unit": "%"}, {"measurement": "Heart Rates of Auricle Muscles", "setting": "right auricle muscle; 1 × 10^−5 M", "value": 175, "unit": "%"}, {"measurement": "Heart Rates of Auricle Muscles", "setting": "right auricle muscle; 1 × 10^−6 M", "value": 165, "unit": "%"}, {"measurement": "Heart Rates of Auricle Muscles", "setting": "right auricle muscle; 1 × 10^−7 M", "value": 150, "unit": "%"}, {"measurement": "Heart Rates of Auricle Muscles", "setting": "right auricle muscle; 3 × 10^−5 M", "value": 180, "unit": "%"}, {"measurement": "Heart Rates of Auricle Muscles", "setting": "right auricle muscle; 3 × 10^−6 M", "value": 170, "unit": "%"}, {"measurement": "Heart Rates of Auricle Muscles", "setting": "right auricle muscle; 3 × 10^−7 M", "value": 160, "unit": "%"}]}, {"smiles": "Oc1cc2c(cc1O)[C@@H](Cc1ccc3ccccc3c1)NCC2", "note": "[Formula 8, (R)-6,7-Dihydroxy-1-(β-naphthylmethyl)-1,2,3,4-tetrahydroisoquinoline]", "values": [{"measurement": "platelet concentration compared with LPS only", "setting": "[1]", "value": "higher"}, {"measurement": "LD50", "setting": "[2]; [3]", "value": 214, "unit": "mg/kg"}, {"measurement": "LD50", "setting": "[2]; [4]", "value": 80, "unit": "mg/kg"}, {"measurement": "effect on contractile force of auricle muscles", "setting": "left auricle muscle", "value": "no effect"}, {"measurement": "Contractile Force of Auricle Muscles", "setting": "left auricle muscle; 1 × 10^−4 M", "value": 105, "unit": "%"}, {"measurement": "Contractile Force of Auricle Muscles", "setting": "left auricle muscle; 1 × 10^−5 M", "value": 100, "unit": "%"}, {"measurement": "Contractile Force of Auricle Muscles", "setting": "left auricle muscle; 1 × 10^−6 M", "value": 100, "unit": "%"}, {"measurement": "Contractile Force of Auricle Muscles", "setting": "left auricle muscle; 1 × 10^−7 M", "value": 100, "unit": "%"}, {"measurement": "Contractile Force of Auricle Muscles", "setting": "left auricle muscle; 3 × 10^−5 M", "value": 105, "unit": "%"}, {"measurement": "Contractile Force of Auricle Muscles", "setting": "left auricle muscle; 3 × 10^−6 M", "value": 100, "unit": "%"}, {"measurement": "Contractile Force of Auricle Muscles", "setting": "left auricle muscle; 3 × 10^−7 M", "value": 100, "unit": "%"}, {"measurement": "IC50", "setting": "Rat Thoracic Aortas; [5]", "value": 1950, "unit": "nM"}, {"measurement": "IC50", "setting": "Rat Thoracic Aortas; [6]", "value": 7540, "unit": "nM"}, {"measurement": "relaxation of contracted blood vessels", "setting": "Rat Thoracic Aortas", "value": "induced relaxation"}, {"measurement": "IC50", "setting": "rat PRP; [7]", "value": 540, "unit": "µM"}, {"measurement": "IC50", "setting": "rat PRP; [8]", "value": 49, "unit": "µM"}, {"measurement": "IC50", "setting": "rat PRP; [9]", "value": 7.9, "unit": "µM"}, {"measurement": "IC50", "setting": "rat PRP; [10]", "value": 150, "unit": "µM"}, {"measurement": "IC50", "setting": "rat PRP; [11]", "value": 15, "unit": "µM"}, {"measurement": "survival after six days", "setting": "LPS-injected rat; 30 mg/kg compound 30 min before LPS 20 mg/kg i.p.", "value": 72, "unit": "%"}, {"measurement": "effect on heart rates of auricle muscles", "setting": "right auricle muscle", "value": "no effect"}, {"measurement": "Heart Rates of Auricle Muscles", "setting": "right auricle muscle; 1 × 10^−4 M", "value": 105, "unit": "%"}, {"measurement": "Heart Rates of Auricle Muscles", "setting": "right auricle muscle; 1 × 10^−5 M", "value": 105, "unit": "%"}, {"measurement": "Heart Rates of Auricle Muscles", "setting": "right auricle muscle; 1 × 10^−6 M", "value": 100, "unit": "%"}, {"measurement": "Heart Rates of Auricle Muscles", "setting": "right auricle muscle; 1 × 10^−7 M", "value": 100, "unit": "%"}, {"measurement": "Heart Rates of Auricle Muscles", "setting": "right auricle muscle; 3 × 10^−5 M", "value": 105, "unit": "%"}, {"measurement": "Heart Rates of Auricle Muscles", "setting": "right auricle muscle; 3 × 10^−6 M", "value": 100, "unit": "%"}, {"measurement": "Heart Rates of Auricle Muscles", "setting": "right auricle muscle; 3 × 10^−7 M", "value": 100, "unit": "%"}]}]}
